The NIST ThermoML archive (doi:10.1016/j.jct.2019.01.028)
± gives the expanded uncertainty stated by the source.

Assays:
[1] = xn = mol fraction of the nth substance listed; settings: transient hot wire
[2] = 100 kPa, Liquid, transient hot wire

## F/C=C/C(F)(F)F [trans-1,3,3,3-tetrafluoropropene] + C=C(F)C(F)(F)F
[1]; 274.82 K, 1240 kPa, Liquid, x1 = 0.5
  thermal conductivity: 0.0766 ± 0.0025 W/m/K
[1]; 294.69 K, 1080 kPa, Liquid, x1 = 0.5
  thermal conductivity: 0.0689 ± 0.0014 W/m/K
[1]; 303.67 K, 2050 kPa, Liquid, x1 = 0.5
  thermal conductivity: 0.0679 ± 0.0015 W/m/K
[1]; 303.96 K, 2960 kPa, Liquid, x1 = 0.5
  thermal conductivity: 0.0715 ± 0.0015 W/m/K
[1]; 323.14 K, 2920 kPa, Liquid, x1 = 0.5
  thermal conductivity: 0.0633 ± 0.0013 W/m/K
[1]; 324.62 K, 2070 kPa, Liquid, x1 = 0.5
  thermal conductivity: 0.0622 ± 0.0012 W/m/K
[1]; 355.01 K, 940 kPa, Gas, x1 = 0.5
  thermal conductivity: 0.01929 ± 0.0004 W/m/K
[1]; 375.04 K, 1740 kPa, Gas, x1 = 0.5
  thermal conductivity: 0.02197 ± 0.00045 W/m/K
[1]; 375.09 K, 1010 kPa, Gas, x1 = 0.5
  thermal conductivity: 0.02168 ± 0.00045 W/m/K
[1]; 393.98 K, 1860 kPa, Gas, x1 = 0.5
  thermal conductivity: 0.02321 ± 0.00048 W/m/K
[1]; 394.38 K, 2520 kPa, Gas, x1 = 0.5
  thermal conductivity: 0.0246 ± 0.00051 W/m/K
[1]; 414.22 K, 2920 kPa, Gas, x1 = 0.5
  thermal conductivity: 0.02633 ± 0.00053 W/m/K

## F/C=C/C(F)(F)F [trans-1,3,3,3-tetrafluoropropene] + CC(F)(F)F
[1]; 264.94 K, 910 kPa, Liquid, x2 = 0.5
  thermal conductivity: 0.0772 ± 0.0015 W/m/K
[1]; 285.99 K, 2120 kPa, Liquid, x2 = 0.5
  thermal conductivity: 0.0752 ± 0.0015 W/m/K
[1]; 286.02 K, 1020 kPa, Liquid, x2 = 0.5
  thermal conductivity: 0.0742 ± 0.0015 W/m/K
[1]; 304.35 K, 2020 kPa, Liquid, x2 = 0.5
  thermal conductivity: 0.069 ± 0.0014 W/m/K
[1]; 304.36 K, 3040 kPa, Liquid, x2 = 0.5
  thermal conductivity: 0.0685 ± 0.0014 W/m/K
[1]; 324.01 K, 2890 kPa, Liquid, x2 = 0.5
  thermal conductivity: 0.0624 ± 0.0012 W/m/K
[1]; 345.02 K, 950 kPa, Gas, x2 = 0.5
  thermal conductivity: 0.01913 ± 0.0004 W/m/K
[1]; 364.82 K, 1040 kPa, Gas, x2 = 0.5
  thermal conductivity: 0.02103 ± 0.00044 W/m/K
[1]; 364.82 K, 1730 kPa, Gas, x2 = 0.5
  thermal conductivity: 0.02117 ± 0.00044 W/m/K
[1]; 384.54 K, 1920 kPa, Gas, x2 = 0.5
  thermal conductivity: 0.02317 ± 0.00047 W/m/K
[1]; 384.6 K, 2540 kPa, Gas, x2 = 0.5
  thermal conductivity: 0.02357 ± 0.00048 W/m/K
[1]; 404.05 K, 2960 kPa, Gas, x2 = 0.5
  thermal conductivity: 0.02606 ± 0.00053 W/m/K

## F/C=C/C(F)(F)F [trans-1,3,3,3-tetrafluoropropene] + FC(F)C(F)(F)F
[1]; 262.72 K, 1000 kPa, Liquid, x2 = 0.5
  thermal conductivity: 0.0781 ± 0.0016 W/m/K
[1]; 285.7 K, 1080 kPa, Liquid, x2 = 0.5
  thermal conductivity: 0.0737 ± 0.0015 W/m/K
[1]; 285.77 K, 2060 kPa, Liquid, x2 = 0.5
  thermal conductivity: 0.0738 ± 0.0015 W/m/K
[1]; 304.23 K, 1940 kPa, Liquid, x2 = 0.5
  thermal conductivity: 0.0636 ± 0.0014 W/m/K
[1]; 304.8 K, 3080 kPa, Liquid, x2 = 0.5
  thermal conductivity: 0.0688 ± 0.0015 W/m/K
[1]; 324.33 K, 3020 kPa, Liquid, x2 = 0.5
  thermal conductivity: 0.0618 ± 0.0013 W/m/K
[1]; 333.94 K, 1120 kPa, Gas, x2 = 0.5
  thermal conductivity: 0.01783 ± 0.00038 W/m/K
[1]; 353.67 K, 1810 kPa, Gas, x2 = 0.5
  thermal conductivity: 0.01927 ± 0.0004 W/m/K
[1]; 353.84 K, 1230 kPa, Gas, x2 = 0.5
  thermal conductivity: 0.01927 ± 0.0004 W/m/K
[1]; 373.56 K, 2020 kPa, Gas, x2 = 0.5
  thermal conductivity: 0.02145 ± 0.00046 W/m/K
[1]; 373.67 K, 3040 kPa, Gas, x2 = 0.5
  thermal conductivity: 0.02479 ± 0.00052 W/m/K
[1]; 395.41 K, 3040 kPa, Gas, x2 = 0.5
  thermal conductivity: 0.02441 ± 0.00052 W/m/K

## F/C=C/C(F)(F)F [trans-1,3,3,3-tetrafluoropropene] + FCC(F)(F)F
[1]; 274.68 K, 980 kPa, Liquid, x2 = 0.5
  thermal conductivity: 0.0884 ± 0.0018 W/m/K
[1]; 305.14 K, 3140 kPa, Liquid, x2 = 0.5
  thermal conductivity: 0.0754 ± 0.0015 W/m/K
[1]; 305.18 K, 1040 kPa, Liquid, x2 = 0.5
  thermal conductivity: 0.0739 ± 0.0015 W/m/K
[1]; 305.22 K, 2040 kPa, Liquid, x2 = 0.5
  thermal conductivity: 0.0736 ± 0.0015 W/m/K
[1]; 324.82 K, 2960 kPa, Liquid, x2 = 0.5
  thermal conductivity: 0.0627 ± 0.0013 W/m/K
[1]; 326.02 K, 2030 kPa, Liquid, x2 = 0.5
  thermal conductivity: 0.0621 ± 0.0012 W/m/K
[1]; 344.05 K, 870 kPa, Gas, x2 = 0.5
  thermal conductivity: 0.01922 ± 0.0004 W/m/K
[1]; 364.05 K, 990 kPa, Gas, x2 = 0.5
  thermal conductivity: 0.02123 ± 0.00044 W/m/K
[1]; 364.13 K, 2030 kPa, Gas, x2 = 0.5
  thermal conductivity: 0.02192 ± 0.00045 W/m/K
[1]; 383.85 K, 2230 kPa, Gas, x2 = 0.5
  thermal conductivity: 0.02365 ± 0.00049 W/m/K
[1]; 384.09 K, 3030 kPa, Gas, x2 = 0.5
  thermal conductivity: 0.02611 ± 0.00054 W/m/K
[1]; 403.87 K, 3020 kPa, Gas, x2 = 0.5
  thermal conductivity: 0.02684 ± 0.00055 W/m/K

## O [water]
[2]; 292.8 K
  thermal conductivity: 0.6012 ± 0.0063 W/m/K
[2]; 295.01 K
  thermal conductivity: 0.605 ± 0.0063 W/m/K
[2]; 303.13 K
  thermal conductivity: 0.6184 ± 0.0065 W/m/K
[2]; 303.93 K
  thermal conductivity: 0.6193 ± 0.0065 W/m/K
[2]; 305.47 K
  thermal conductivity: 0.622 ± 0.0065 W/m/K
[2]; 314.01 K
  thermal conductivity: 0.6259 ± 0.0066 W/m/K
[2]; 314.95 K
  thermal conductivity: 0.6275 ± 0.0066 W/m/K
[2]; 334.75 K
  thermal conductivity: 0.6479 ± 0.0068 W/m/K
[2]; 336.26 K
  thermal conductivity: 0.6496 ± 0.0068 W/m/K
